According to patent US10988523B2, “Modified lipidated Relaxin B chain peptides and their therapeutic use” (Sanofi, priority 2018, dated 2021):
*1 amine or outer side, *2 acyl side, *3 side chain or, on linkers, in order; H or OH if unused. Where a SMILES comes first, the peptide text is derived from it. Side-chain parts run from the residue outwards. [ ]: non-standard residue; d: D form. The star is where a group is joined. γGlu = O=C(O)[C@H](CCC(=O)[*:2])N[*:1]; Stearoyl = CCCCCCCCCCCCCCCCCC(=O)*; Palmitoyl = CCCCCCCCCCCCCCCC(=O)*; Nle = CCCC[C@H](N)C(=O)O; AEEA = NCCOCCOCC(=O)O; Aib = CC(C)(N)C(=O)O

How the values were obtained:
[1] = Stability testing of peptides in human plasma or blood; format: in vitro ADME; details: 37° C.; for Human Plasma stability % remaining T = 0: human plasma or blood, T = 0 (reference), 5 μM
Experimental: (§1) Prior to the testing of stability in plasma (or blood) of a peptide batch, its purity (HPLC-UV) was determined.
(§2) Rat and Human plasma: anti-coagulant sodium or lithium heparin.
(§3) Rat and Human blood: anti-coagulant sodium or lithium heparin. • Stock solution: • 100 μM solution of study compound in 50 mM Phosphate buffer pH 7.4. • 950 μL plasma (or blood) was pre-incubated for 5 min at 37° C. 50 μL of compound stock solution was added. Final compound concentration=5 μM. Vortex and transfer 1504, plasma (or blood) into an Eppendorf for each time point. The time points […] were carried out in duplicate for each species.
(§4) After incubation 150 μL, plasma (or blood) was extracted with 600 μL, Acetonitrile containing with 1% TFA. Then, vortexed and centrifuged 10 min at 14600 rpm. 200 μL supernatant was dried under N2. The sample was reconstituted in 200 μL of H2O/CH3CN 98/2+0.1% FA+50 ng/ml Labetalol and analyzed using the analytical system used in solubility and stability studies.
(§5) For determination of the amount of the remaining peptide, the peak areas of the target compound at t0 and each time point […] were compared, resulting in “% remaining peptide”, following the equation: % remaining peptide=[(peak area peptide time)×100]/peak area peptide t0. The stability is expressed as “% remaining peptide”.

[2] = Stability testing of peptides in rat plasma or blood; format: in vitro ADME; details: 37° C.; for Rat plasma stability % remaining T = 0: rat plasma or blood, T = 0 (reference), 5 μM
Experimental: as §1, §2, §3, §4, §5

[3] = target: T1, RXFP1 (Homo sapiens, UniProt Q9HBX9); experiment: OVCAR5 cAMP assay (HTRF), RXFP1 agonist activity; format: cell-based; details: for EC50: OVCAR5 cells, cAMP HTRF, read-out: EC50 (nM), OVCAR 5 cells (cAMP); for Emax: OVCAR-5, maximal cAMP relative to H2-relaxin maximum (100%), read-out: EMax, OVCAR 5 cells (cAMP)
T1 construct: OVCAR5 cells expressing endogenous RXFP1; endogenous in cells; host or cells: OVCAR5 cells
T1 sequence (Q9HBX9 1-757): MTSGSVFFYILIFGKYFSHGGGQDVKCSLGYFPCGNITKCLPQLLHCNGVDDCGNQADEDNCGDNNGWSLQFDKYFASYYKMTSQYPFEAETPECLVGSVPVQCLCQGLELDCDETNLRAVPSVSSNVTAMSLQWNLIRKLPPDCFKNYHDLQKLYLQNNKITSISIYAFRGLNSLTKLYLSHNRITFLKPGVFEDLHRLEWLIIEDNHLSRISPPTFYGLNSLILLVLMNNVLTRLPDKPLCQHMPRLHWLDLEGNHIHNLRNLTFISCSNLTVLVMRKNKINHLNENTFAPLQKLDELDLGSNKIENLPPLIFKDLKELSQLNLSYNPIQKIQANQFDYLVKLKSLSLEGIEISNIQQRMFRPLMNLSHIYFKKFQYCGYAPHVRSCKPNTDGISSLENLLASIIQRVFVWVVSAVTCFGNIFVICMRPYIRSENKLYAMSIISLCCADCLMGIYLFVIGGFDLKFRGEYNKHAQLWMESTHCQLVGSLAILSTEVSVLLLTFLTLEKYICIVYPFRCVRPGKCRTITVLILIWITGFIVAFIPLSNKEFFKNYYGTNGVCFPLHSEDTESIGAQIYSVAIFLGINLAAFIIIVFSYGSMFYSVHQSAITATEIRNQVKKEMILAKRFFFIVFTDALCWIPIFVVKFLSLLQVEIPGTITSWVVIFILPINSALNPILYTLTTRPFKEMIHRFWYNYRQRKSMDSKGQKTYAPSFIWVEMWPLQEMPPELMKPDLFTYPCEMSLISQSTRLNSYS
Outline: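 OVCAR5 cells (endogenous RXFP1) pretreated 40 min at 37° C with 1 mM IBMX, then exposed to peptides in serum-free medium for 30 min at 37° C. Lysate cAMP read by HTRF; EC50 from variable-slope sigmoidal fit; Emax as % of H2-relaxin maximal cAMP in same run.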

[4] = Pharmacokinetic (PK) determination after i.v. or s.c. administration to rats; format: in vivo, Sprague Dawley rats; details: Sprague Dawley, Rat PK; for C0 / half-life: iv, 1 mg/kg i.v.; for C0: extrapolated plasma concentration at t=0, read-out: C0; for half-life / Cmax / Tmax / bioavailability: plasma; for half-life: read-out: T½ (converted); for Cmax / Tmax: sc, 3 mg/kg s.c.; for bioavailability: subcutaneous, 3 mg/kg s.c. vs 1 mg/kg i.v., dose-corrected AUC ratio
Outline: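 Sprague Dawley rats received peptide in PBS at 1 mg/kg i.v. or 3 mg/kg s.c., dose corrected for salts, solvent and purity. Plasma analysed by LC/MS after protein precipitation; non-compartmental PK, BLQ values set to zero, F% as dose-corrected s.c./i.v. AUC ratio.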

[5] = whole blood, rat blood, read-out: Rat stability in blood % remaining 1 h
[6] = whole blood, rat blood, read-out: Rat stability in blood % remaining 4 h

Human Plasma stability % remaining T = 0 [1] [%]	remaining at 1 h, 5 µM ([1]; whole blood, human blood, read-out: Human stability in blood % remaining 1 h) [%]	remaining at 4 h, 5 µM ([1]; whole blood, human blood, read-out: Human stability in blood % remaining 4 h) [%]	Rat plasma stability % remaining T = 0 [2] [%]	remaining at 1 h, 5 µM [2, 5] [%]	remaining at 4 h, 5 µM [2, 6] [%]	EC50 [3] [nM]	Emax [3] [%]	C0 [4] [µM]	half-life [4] [h]	Cmax [4] [µM]	Tmax [4] [h]	bioavailability [4] [%]	remaining at 1 h, 5 µM ([1]; human plasma, read-out: Human Plasma stability % remaining 1 h) [%]	remaining at 4 h, 5 µM ([1]; human plasma, read-out: Human Plasma stability % remaining 4 h) [%]	remaining at 1 h, 5 µM ([2]; rat plasma, read-out: Rat plasma stability % remaining 1 h) [%]	remaining at 4 h, 5 µM ([2]; rat plasma, read-out: Rat plasma stability % remaining 4 h) [%]	Compound
100	110	91	100	110	93	17.6	87	4.77	4.3	1.7	6	53	–	–	–	–	CCCCCCCCCCCCCCCC(=O)N[C@@H](CCC(=O)N[C@@H](CCC(=O)N[C@@H](CCC(=O)NCCCC[C@H](NC(=O)[C@H](CCCCN)NC(=O)[C@H](CCCNC(=N)N)NC(=O)C(C)(C)NC(=O)[C@H](CO)NC(=O)[C@H](Cc1c[nH]c2ccccc12)NC(=O)[C@@H](NC(=O)[C@H](CO)NC(=O)[C@H](CCSC)NC(=O)CNC(=O)[C@H](CCC(=O)O)NC(=O)C(C)(C)NC(=O)C(C)(C)NC(=O)[C@@H](NC(=O)[C@H](CCC(N)=O)NC(=O)[C@H](C)NC(=O)[C@H](CCCNC(=N)N)NC(=O)[C@@H](NC(=O)[C@H](CCCCN)NC(=O)[C@H](CCC(=O)O)NC(=O)[C@H](CCCNC(=N)N)NC(=O)CNC(=O)[C@H](CCC(=O)O)NC(=O)[C@H](CC(C)C)NC(C)=O)C(C)C)[C@@H](C)CC)[C@@H](C)O)C(N)=O)C(=O)O)C(=O)O)C(=O)O [compound 7] (Ac-LEGREKVRAQI[Aib][Aib]EGMSTWS[Aib]RKK([γGlu-γGlu-γGlu-Palmitoyl])-NH2)
100	–	–	100	84	92	–	95	4.99	3	2.32	6	42	–	–	–	–	CCCCCCCCCCCCCCCCCC(=O)N[C@@H](CCC(=O)N[C@@H](CCC(=O)N[C@@H](CCC(=O)NCCCC[C@H](NC(=O)[C@H](CCCCN)NC(=O)[C@H](CCCNC(=N)N)NC(=O)C(C)(C)NC(=O)[C@H](CO)NC(=O)[C@H](Cc1c[nH]c2ccccc12)NC(=O)[C@@H](NC(=O)[C@H](CO)NC(=O)[C@H](CCCC)NC(=O)CNC(=O)[C@H](CCC(=O)O)NC(=O)C(C)(C)NC(=O)C(C)(C)NC(=O)[C@@H](NC(=O)[C@H](CCC(N)=O)NC(=O)[C@H](C)NC(=O)[C@H](CCCNC(=N)N)NC(=O)[C@@H](NC(=O)[C@H](CCCCN)NC(=O)[C@H](CCC(=O)O)NC(=O)[C@H](CCCNC(=N)N)NC(=O)CNC(=O)[C@H](CCC(=O)O)NC(=O)[C@H](CC(C)C)NC(C)=O)C(C)C)[C@@H](C)CC)[C@@H](C)O)C(N)=O)C(=O)O)C(=O)O)C(=O)O [compound 9] (Ac-LEGREKVRAQI[Aib][Aib]EG[Nle]STWS[Aib]RKK([γGlu-γGlu-γGlu-Stearoyl])-NH2)
100	–	–	100	–	–	0.17	80	–	–	–	–	–	101	114	96	98	CCCCCCCCCCCCCCCC(=O)N[C@@H](CCC(=O)NCCCC[C@H](NC(=O)CC[C@H](NC(=O)CC[C@H](NC(=O)CC[C@H](NC(=O)COCCOCCNC(=O)COCCOCCNC(=O)COCCOCCNC(=O)[C@H](CCCCN)NC(=O)[C@H](CCCCN)NC(=O)[C@H](CCCNC(=N)N)NC(=O)C(C)(C)NC(=O)[C@H](CO)NC(=O)[C@H](Cc1c[nH]c2ccccc12)NC(=O)[C@@H](NC(=O)[C@H](CO)NC(=O)[C@H](CCCC)NC(=O)CNC(=O)[C@H](CCC(=O)O)NC(=O)C(C)(C)NC(=O)C(C)(C)NC(=O)[C@@H](NC(=O)[C@H](CCC(N)=O)NC(=O)[C@H](C)NC(=O)[C@H](CCCNC(=N)N)NC(=O)[C@@H](NC(=O)[C@H](CCCCN)NC(=O)[C@H](CCC(=O)O)NC(=O)[C@H](CCCNC(=N)N)NC(=O)CNC(=O)[C@H](CCC(=O)O)NC(=O)[C@H](CC(C)C)NC(C)=O)C(C)C)[C@@H](C)CC)[C@@H](C)O)C(=O)O)C(=O)O)C(=O)O)C(N)=O)C(=O)O [compound 110] (Ac-LEGREKVRAQI[Aib][Aib]EG[Nle]STWS[Aib]RKK[AEEA][AEEA][AEEA][γGlu][γGlu][γGlu]K([γGlu-Palmitoyl])-NH2)
